# According to paper PMC6696115, “Characterization of Antimicrobial, Antioxidant, and Leishmanicidal Activities of Schiff Base Derivatives of 4-Aminoantipyrine” (Molecules, 2019):
# Where two headings read alike, the source gives them in different places.
# Legend:
# [1] = test system: Aspergillus niger ATCC 6275; test: antimicrobial serial microdilution, A. niger; assay type: cell-based; conditions: serial microdilution, 35 °C, 48 h; for MIC: 96-well plates, max 2% DMSO
# Protocol: (§1) The in vitro antifungal and antimicrobial activities were determined by testing the Schiff bases against the fungi Saccharomyces cerevisiae, Candida albicans, and Aspergillus niger and the bacteria Staphylococcus aureus, Enterococcus faecalis (Gram-positive), Pseudomonas aeruginosa, and Escherichia coli (Gram-negative).
# (§2) The bacterial inoculum was prepared by emulsifying overnight colonies from an agar medium in broth (Mueller–Hinton broth). The suspensions were adjusted to a final organism density of 5 × 10^5 colony former units (cfu)/mL. […] The emulsifying of A. niger cultures was done by pouring 5 mL of saline and 0.1% of polysorbate 80 over the Petri dishes. Then, 100 µL of this suspension were diluted in 5 mL of saline and adjusted to an optical density of 0.1 at 530 nm. For S. cerevisiae, fresh exponential YPAD (yeast extract 1%, peptone 2%, adenine 0.004%, […]) cultures were adjusted to an optical density of 0.5 at 600 nm, and then diluted to the equivalent of 1 × 10^4 cells/mL (10^−3 dilution). Stock solutions of Schiff bases were prepared by dissolving them in DMSO at 10 mg/mL. […] The range of concentrations used was empirically selected for each organisms and the Schiff base. Drug sensitivities were assayed by serial dilutions in 96-well plates as previously described. A row with media and cells but without drug was the positive control. The blank was done by preparing a row with media and drugs, but without cells. Plates were fitted with a tight lid before incubation to prevent desiccation. […] The minimum bactericidal concentration (MBC) and fungicidal concentration (MFC) were determined by spreading 100 µL of culture from each well onto a plate (Mueller–Hinton agar for bacteria, Sabouraud dextrose agar for fungi except S. cerevisiae, and YPAD for S. cerevisiae).
# [2] = test system: Candida albicans ATCC 10231; test: antimicrobial serial microdilution, C. albicans; assay type: cell-based; conditions: serial microdilution, 35 °C, 48 h
# Protocol: as §1, §2
# [3] = test system: promastigotes from L. mexicana (M379); test: leishmanicidal activity, MTT colorimetric assay; assay type: cell-based; conditions: Leishmania mexicana, 48 h exposure, 1% DMSO
# Protocol: Leishmanicidal activities of all Schiff bases were evaluated by measuring promastigote mitochondrial activity using MTT colorimetric assay as described previously. […] The medium was renewed every four days. Parasite density was determined in a Neubauer chamber.
# Into each well of a 96-well cell culture dish was dispensed 1 × 10^6 parasites. A stock solution of each of the Schiff Base was prepared in DMSO, and serial dilutions were added to the parasite suspension, keeping the solvent concentration at 1%. The final volume was 100 µL for each well and triplicate conditions were carried out. Pentamidine treatment (100 µg/mL) and untreated parasites were used as positive control and negative control, respectively. After exposure to the compounds for 48 h in culture medium, 10 µL of a solution of 5 mg/mL MTT dissolved in PBS was added to each well. […] Later, the plate was centrifuged at 4400 rpm for 10 min and the culture medium was then aspirated. Next, 100 µL of DMSO were added into each well to solubilize the formazan and the plate was shaken for 5 min. The colored formazan salt was measured by recording changes in absorbance at 570 nm using a microplate reader, a BioTek Synergy HT spectrophotometer. A reference wavelength of 630 nm was used to subtract background. Optical densities were analyzed as the quantity of formazan is directly proportional to the number of viable parasites. Data were analyzed with the statistical software GraphPad Prism.
# [4] = carcinogenicity group; ref IARC; cited from earlier work
# [5] = test system: Escherichia coli ATCC 25922; test: antimicrobial serial microdilution, E. coli; assay type: cell-based; conditions: serial microdilution, 37 °C, 24 h
# Protocol: as §1, §2
# RAW 264.7 cells = test: cell viability, MTT dye assay; assay type: cell-based, murine; conditions: 48 h
# Protocol: The specificity and selectivity for the pathogen target is a key point for any potential drug.
# The medium was renewed once a week. The viability was determined using MTT (thiazolyl blue tetrazolium bromide) dye assay as described previously for leishmanicidal activity assessment, with some variations. Here, 5 × 10^4 cells/well in a final volume of 100 µL were deposited into a 96-well plate in triplicate. Saponin (2 and 4 mg/mL) and untreated cells were used as the positive control and negative control, respectively. Schiff bases were dissolved in DMSO to obtain different serial concentrations (0.01–2000 µM). […] Cells were pelleted by centrifugation at 4400 rpm for 10 minutes and the media was removed. Next, 100 µL/well of DMSO were added and the absorbance at 570 nm was recorded. A reference wavelength of 630 nm was used for background subtraction.
# [6] = test system: Staphylococcus aureus ATCC 29213; test: antimicrobial serial microdilution, S. aureus; assay type: cell-based; conditions: serial microdilution, 37 °C, 24 h
# Protocol: as §1, §2
# [7] = test system: S. cerevisiae (backgrounds W303 and BY4741); test: antimicrobial serial microdilution, S. cerevisiae; assay type: cell-based, Saccharomyces cerevisiae; conditions: 48 h; for IC50 / MIC: Saccharomyces cerevisiae; for MIC: read-out: MIC S. cerevisiae; for NIC S. cerevisiae: noninhibitory concentration
# Protocol: as §1, §2
# [8] = DPPH radical scavenging assay; assay type: biochemical; conditions: 30 min, room temperature, dark, absorbance 515 nm
# Protocol: This was used immediately. The experimental procedure was adapted from the literature. Briefly, in a 96-well plate, 100 µL of solution of DPPH (2, 2-diphenyl-1-picrylhydrazyl) radical (0.2 mM in methanol) was added to 100 µL of methanolic solutions of 3a–j, 4, or 5, prepared as serial two-fold dilutions from the stock solution. Standards were also prepared in the same concentrations.
# The percentage of DPPH scavenging was then calculated by using the following formula: % DPPH scavenging=100∗Asample+DPPH−Asample blank/ADPPH−Asolvent
# P. aeruginosa ATCC 27853 = test: antimicrobial serial microdilution, P. aeruginosa; assay type: cell-based; conditions: Pseudomonas aeruginosa, ATCC27853, 37 °C, 24 h
# Protocol: as §1, §2
# [9] = test system: Enterococcus faecalis ATCC 29212; test: antimicrobial serial microdilution, E. faecalis; assay type: cell-based; conditions: serial microdilution, 37 °C, 24 h
# Protocol: as §1, §2
# [10] = Staphylococcus aureus, ATCC29213
# [11] = Enterococcus faecalis, ATCC29212
compound,measurement,setting,value
"C[C@@H](c1ncncc1F)[C@](O)(Cn1cncn1)c1ccc(F)cc1F [VR, voriconazole, reference compound]",IC50,"[1]; Aspergillus niger, ATCC6275",0.2 µg/mL
same,MIC,"[1]; Aspergillus niger, ATCC6275",1.2 ± 0.05 µg/mL
same,NIC A. niger,[1]; noninhibitory concentration,0.05 ± 0.01 µg/mL
same,IC50,"[2]; Candida albicans, ATCC10231",0.9 µg/mL
same,MIC,"[2]; Candida albicans, ATCC10231",29.7 ± 3.52 µg/mL
same,NIC C. albicans,[2]; noninhibitory concentration,0.00 ± 0.00 µg/mL
"N=C(N)c1ccc(OCCCCCOc2ccc(C(=N)N)cc2)cc1 [PT, pentamidine, reference compound]",IC50,[3],4.5 ± 0.46 µM
CN(Cc1cnc2nc(N)nc(N)c2n1)c1ccc(C(=O)N[C@@H](CCC(=O)O)C(=O)O)cc1 [Methotrexate],IARC: group of classification of IARC,[4],3
O=c1[nH]cc(F)c(=O)[nH]1 [Fluorouracil],IARC: group of classification of IARC,[4],3
"Cc1c(N=Cc2cccc([N+](=O)[O-])c2)c(=O)n(-c2ccccc2)n1C [Compound 3g, 4-(3-Nitrobenzylideneamino)-1,5-dimethyl-2-phenyl-1H-pyrazol-3(2H)-one]",IC50,[3],> 200 µM
same,MIC,"[5]; Escherichia coli, ATCC25922",> 200 µg/mL
same,% Live Cells,"RAW 264.7 cells; RAW 264.7, exposure to 300 µM (limited solubility)",22.1 ± 0.6%
same,MIC,"[1]; Aspergillus niger, ATCC6275",> 200 µg/mL
same,MIC,"[2]; Candida albicans, ATCC10231",> 200 µg/mL
same,MIC,[6]; [10],> 200 µg/mL
same,IC50,"[7]; serial microdilution, 35 °C, read-out: IC50 S. cerevisiae (converted)",105 µg/mL
same,MIC,"[7]; serial microdilution, 35 °C",179 ± 59.5 µg/mL
same,NIC S. cerevisiae,"[7]; serial microdilution, 35 °C",63.7 ± 8.7 µg/mL
same,IC50,[8],> 200 µM
same,MIC,P. aeruginosa ATCC 27853,> 200 µg/mL
same,MIC,[9]; [11],> 200 µg/mL
"Cc1c(N=Cc2ccc(O)c(O)c2)c(=O)n(-c2ccccc2)n1C [Compound 3i, 4-(3,4-Dihydroxybenzylideneamino)-1,5-dimethyl-2-phenyl-1H-pyrazol-3(2H)-one]",IC50,[3],> 200 µM
same,MIC,"[5]; Escherichia coli, ATCC25922",> 200 µg/mL
same,% Live Cells,"RAW 264.7 cells; RAW 264.7, exposure to 400 µM",34.4 ± 2.4%
same,MIC,"[1]; Aspergillus niger, ATCC6275",> 200 µg/mL
same,MIC,"[2]; Candida albicans, ATCC10231",> 200 µg/mL
same,MIC,[6]; [10],> 200 µg/mL
same,MIC,"[7]; serial microdilution, 35 °C",> 200 µg/mL
same,IC50,[8],18.9 ± 2.4 µM
same,MIC,P. aeruginosa ATCC 27853,> 200 µg/mL
same,MIC,[9]; [11],> 200 µg/mL
"O=C(O)c1cn(C2CC2)c2cc(N3CCNCC3)c(F)cc2c1=O [CP, ciprofloxacin, reference compound]",IC50,"[5]; Escherichia coli, ATCC25922",0.07 µg/mL
same,MIC,"[5]; Escherichia coli, ATCC25922",0.15 ± 0.009 µg/mL
same,NIC E. coli,[5]; noninhibitory concentration,0.06 ± 0.003 µg/mL
same,IC50,[6]; [10],0.1 µg/mL
same,MIC,[6]; [10],0.44 ± 0.09 µg/mL
same,NIC S. aureus,[6]; noninhibitory concentration,0.06 ± 0.02 µg/mL
same,IC50,P. aeruginosa ATCC 27853,0.94 µg/mL
same,MIC,P. aeruginosa ATCC 27853,0.47 ± 0.1 µg/mL
same,IC50,[9]; [11],0.49 µg/mL
same,MIC,[9]; [11],1.15 ± 0.42 µg/mL
same,NIC E. faecalis,[9]; noninhibitory concentration,0.30 ± 0.07 µg/mL
"O=c1c(O)c(-c2ccc(O)c(O)c2)oc2cc(O)cc(O)c12 [quercetin, reference compound]",IC50,[8],7.3 ± 1 µM
"CN[C@@H]1[C@@H](O)[C@@H](O[C@@H]2[C@@H](O)[C@H](O[C@H]3O[C@H]([C@@H](C)O)[C@@H](O)[C@H](O)[C@H]3N)[C@@H](N)C[C@H]2N)OC[C@]1(C)O [GN, geneticin, reference compound]",IC50,[7]; read-out: IC50 S. cerevisiae,59.9 µg/mL
same,MIC,[7],93.7 ± 0.9 µg/mL
same,NIC S. cerevisiae,"[7]; serial microdilution, 35 °C",44.5 ± 1.7 µg/mL
Cc1c(N)nc([C@H](CC(N)=O)NC[C@H](N)C(N)=O)nc1C(=O)N[C@H](C(=O)N[C@H](C)[C@@H](O)[C@H](C)C(=O)N[C@H](C(=O)NCCc1nc(-c2nc(C(=O)NCCC[S+](C)C)cs2)cs1)[C@@H](C)O)[C@@H](OC1OC(CO)C(O)C(O)C1OC1OC(CO)C(O)C(OC(N)=O)C1O)c1cnc[nH]1 (stereo partly shown) [Bleomycin],IARC: group of classification of IARC,[4],2B
"Cc1c(/N=C/c2ccco2)c(=O)n(-c2ccccc2)n1C [Compound 4, 4-(2-furfurilideneamino)-1,5-dimethyl-2-phenyl-1H-pyrazol-3(2H)-one]",IC50,[3],> 200 µM
same,MIC,"[5]; Escherichia coli, ATCC25922",> 200 µg/mL
same,% Live Cells,"RAW 264.7 cells; RAW 264.7, exposure to 400 µM",23.8 ± 3.4%
same,MIC,"[1]; Aspergillus niger, ATCC6275",> 200 µg/mL
same,MIC,"[2]; Candida albicans, ATCC10231",> 200 µg/mL
same,MIC,[6]; [10],> 200 µg/mL
same,MIC,"[7]; serial microdilution, 35 °C",> 200 µg/mL
same,IC50,[8],> 200 µM
same,MIC,P. aeruginosa ATCC 27853,> 200 µg/mL
same,MIC,[9]; [11],> 200 µg/mL
"COc1ccc(C=Nc2c(C)n(C)n(-c3ccccc3)c2=O)cc1 [Compound 3c, 4-(4-Methoxybenzylideneamino)-1,5-dimethyl-2-phenyl-1H-pyrazol-3(2H)-one]",IC50,[3],> 200 µM
same,MIC,"[5]; Escherichia coli, ATCC25922",> 200 µg/mL
same,% Live Cells,"RAW 264.7 cells; RAW 264.7, exposure to 400 µM",26.1 ± 1.9%
same,MIC,"[1]; Aspergillus niger, ATCC6275",> 200 µg/mL
same,MIC,"[2]; Candida albicans, ATCC10231",> 200 µg/mL
same,MIC,[6]; [10],> 200 µg/mL
same,MIC,"[7]; serial microdilution, 35 °C",> 200 µg/mL
same,IC50,[8],> 200 µM
same,MIC,P. aeruginosa ATCC 27853,> 200 µg/mL
same,MIC,[9]; [11],> 200 µg/mL
"C[C@@H]1[C@H](O)[C@@H](C)/C=C/C=C/C=C/C=C/C=C/C=C/C=C/[C@H](O[C@@H]2O[C@H](C)[C@@H](O)[C@H](N)[C@@H]2O)C[C@@H]2O[C@](O)(C[C@@H](O)C[C@@H](O)[C@H](O)CC[C@@H](O)C[C@@H](O)CC(=O)O[C@H]1C)C[C@H](O)[C@H]2C(=O)O [AP, amphotericin, reference compound]",IC50,[3],0.18 ± 0.07 µM
"O=C(O)/C=C/c1ccc(O)c(O)c1 [caffeic acid, reference compound]",IC50,[8],16.2 ± 2.4 µM
"O=C1O[C@H]([C@@H](O)CO)C(O)=C1O [ascorbic acid, reference compound]",IC50,[8],14.5 ± 2.2 µM
O=P1(N(CCCl)CCCl)NCCCO1 (stereo not shown) [Cyclophosphamide],IARC: group of classification of IARC,[4],1
COc1cc([C@@H]2c3cc4c(cc3[C@@H](O[C@@H]3O[C@@H]5CO[C@@H](C)O[C@H]5[C@H](O)[C@H]3O)[C@H]3COC(=O)[C@H]23)OCO4)cc(OC)c1O [Etoposide],IARC: group of classification of IARC,[4],1
N.N.[Cl][Pt][Cl] [Cisplatin],IARC: group of classification of IARC,[4],2A
